Results: ChEMBL document CHEMBL1201862, “PubChem BioAssay data set” (2004)
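Growth conditions: 96-well plates. Treatment: test compound, 48 hours, 5 concentrations. Analysis: linear interpolation between bracketing concentrations; unreached endpoints set to highest concentration. Abbreviation: GI50, concentration required for 50% inhibition of growth.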 Active and inactive are the calls of the source. Cut-off read from the data, not from the text of the source: active = GI50 up to about 1.1 µM and inactive = higher.

Columns and labels:
Assay in all cases: NCI tumour cell line growth inhibition, 48 h
[1] = test system: A549
[2] = test system: CCRF-CEM
[3] = test system: HL-60
[4] = test system: LOX IMVI
[5] = test system: M14
[6] = test system: MDA-MB-435
[7] = test system: NCI-H23
[8] = test system: NCI-H522
[9] = test system: NCI/ADR-RES
[10] = test system: PC-3
[11] = test system: RPMI-8226
[12] = test system: SK-OV-3
[13] = test system: SR
[14] = test system: UACC-257
[15] = test system: UACC-62
[16] = test system: BT-549
[17] = test system: SF-268
[18] = test system: SK-MEL-28
[19] = test system: SNB-75

Compound	GI50 [1]	GI50 [2]	GI50 [3]	GI50 [4]	GI50 [5]	GI50 [6]	GI50 [7]	GI50 [8]	GI50 [9]	GI50 [10]	GI50 [11]	GI50 [12]	GI50 [13]	GI50 [14]	GI50 [15]	GI50 [16]	GI50 [17]	GI50 [18]	GI50 [19]
CCCNC(=S)N/N=C/c1cccc(C)n1	26.4 µM (inactive)	2.69 µM (inactive)	25.9 µM (inactive)	16.6 µM (inactive)	12.3 µM (inactive)	36.8 µM (inactive)	28.9 µM (inactive)	4.04 µM (inactive)	31 µM (inactive)	38.6 µM (inactive)	24.3 µM (inactive)	46 µM (inactive)	15 µM (inactive)	33 µM (inactive)	20.8 µM (inactive)	–	–	–	–
CC(=O)c1[nH]c(Nc2ccc(C)cc2)c(C(=S)Nc2ccccc2)c1N	14.9 µM (inactive)	21 µM (inactive)	15.8 µM (inactive)	16.4 µM (inactive)	17.1 µM (inactive)	15 µM (inactive)	17.8 µM (inactive)	15.6 µM (inactive)	26.8 µM (inactive)	–	–	34.3 µM (inactive)	22.3 µM (inactive)	18.5 µM (inactive)	16.2 µM (inactive)	15.6 µM (inactive)	14.5 µM (inactive)	19.5 µM (inactive)	19.9 µM (inactive)
Fc1ccccc1CN1COc2c(cc(Cl)c3cccnc23)C1	2.16 µM (inactive)	–	0.265 µM (active)	–	2.05 µM (inactive)	2.54 µM (inactive)	1.6 µM (inactive)	2.68 µM (inactive)	0.0425 µM (active)	1.44 µM (inactive)	< 0.01 µM (active)	6 µM (inactive)	0.389 µM (active)	2.51 µM (inactive)	0.427 µM (active)	–	2.62 µM (inactive)	4.25 µM (inactive)	1.56 µM (inactive)
C=CC1(c2ccc3ccccc3c2)OCC(CC)(CC)CO1	33.9 µM (inactive)	20.3 µM (inactive)	21.6 µM (inactive)	18.4 µM (inactive)	19.9 µM (inactive)	22.7 µM (inactive)	20.1 µM (inactive)	24.5 µM (inactive)	30.1 µM (inactive)	26.9 µM (inactive)	57.7 µM (inactive)	53.1 µM (inactive)	–	27.2 µM (inactive)	24.8 µM (inactive)	–	33.3 µM (inactive)	39.4 µM (inactive)	47.6 µM (inactive)
ClC(/N=N/c1ccccc1)=N/Nc1ccccc1	> 100 µM (inactive)	> 100 µM (inactive)	> 100 µM (inactive)	58.5 µM (inactive)	–	–	> 100 µM (inactive)	61.9 µM (inactive)	–	–	–	> 100 µM (inactive)	> 100 µM (inactive)	> 100 µM (inactive)	–	–	39.2 µM (inactive)	> 100 µM (inactive)	–
CS/C(=N\C#N)S/C=C/C(=O)c1ccc(Cl)cc1	> 100 µM (inactive)	78.5 µM (inactive)	8.15 µM (inactive)	–	22.3 µM (inactive)	24.9 µM (inactive)	24.9 µM (inactive)	18.3 µM (inactive)	27.7 µM (inactive)	46.6 µM (inactive)	–	42.7 µM (inactive)	3.13 µM (inactive)	20.9 µM (inactive)	22.9 µM (inactive)	–	22.5 µM (inactive)	20.6 µM (inactive)	43 µM (inactive)
CCOC(=O)c1ccc(Nc2nc3ccccc3nc2C(=O)OCC)cc1	> 100 µM (inactive)	> 100 µM (inactive)	> 100 µM (inactive)	–	> 100 µM (inactive)	> 100 µM (inactive)	> 100 µM (inactive)	> 100 µM (inactive)	> 100 µM (inactive)	–	85.9 µM (inactive)	> 100 µM (inactive)	> 100 µM (inactive)	–	> 100 µM (inactive)	> 100 µM (inactive)	> 100 µM (inactive)	> 100 µM (inactive)	24.7 µM (inactive)
